Experiments:
[1] = Phase I metabolism kinetics (parent toxin loss) in NADPH-fortified porcine liver microsomes, LC-MS/MS; type: in vitro ADME, pig; settings: for microsomal CLint: Large White, pH 7.4, porcine LMs, read-out: CLint (intrinsic clearance)
Protocol: (§1) Pooled human LMs and pooled Sprague–Dawley rat hepatic microsomes, both originating from male donors, were purchased from Sigma-Aldrich (St. Louis, MO, USA) and Gibco, Thermo Fisher Scientific (Waltham, MA, USA), respectively. Porcine LMs were prepared according to an in-house-developed protocol based on the publication of Knights et al.[32] The liver of an approximately four-month-old female “Large White” (or “German Edelschwein”) pig was obtained from a local slaughterhouse. After slaughtering, the liver was placed on ice for about an hour, kept in ice-cold 50 mM tris(hydroxymethyl)aminomethane hydrochloride (Tris–HCl) (pH 7.4) for an additional hour while being transported, and processed immediately.
(§2) The kinetics of the phase I metabolism of AOH and AME was investigated by incubating human, rat (both 1 mg protein/mL), and porcine LMs (2 mg protein/mL) with 1, 10, 20, 50, and 100 μM AOH or 1, 10, 20, and 50 μM AME based on the protocol by Al-Subeihi et al.[34] The incubation solution contained a final concentration of 3 mM NADPH and 1 mM ascorbic acid in 200 mM Tris–HCl (pH 7.4). After preincubation (37 °C, 1 min, mixing at 250–300 rpm), the toxin stock was added in a 1:100 dilution, resulting in a total DMSO content of 1% and the desired toxin concentration. DMSO was selected for this assay because it is the least inhibitory of the solvents studied by Busby et al. on CYP1A1,[35] the primary enzyme involved in the hydroxylation of AOH and AME.[26] The well-established solubility of the test compounds in DMSO and DMSO-containing aqueous buffers facilitated laboratory work and ensured consistency with existing literature, thereby improving the comparability of results across studies, including those of Pfeiffer and colleagues.[25] In a preliminary investigation, incubation times of 5 and 10 min were chosen because they fall within the linear range of the transformation rate–time relationship, thereby ensuring initial rate conditions (Figure S1). When the selected incubation time (0–10 min) passed, one part of the sample was pipetted into two parts of ice-cold extraction solvent (acetonitrile–methanol, 1:1, v/v) for reaction termination. Subsequently, the samples were placed into the freezer (−20 °C) for at least an hour, centrifuged (15 min, 18,000g, 4 °C), and further diluted in methanol–water (3:7, v/v) prior to LC–MS measurements. In the solvent control, the toxin was substituted with DMSO in the incubation solution. Control incubations were performed without the cofactor NADPH or with heat-inactivated microsomes (98 °C, 10 min, mixing at 300 rpm).
(§3) The quantification of selected analytes using external calibration (MS parameters listed in Supporting Information Table S1) was conducted on a high-performance liquid chromatographic system (Dionex UltiMate 3000 UHPLC, Dionex Softron GmbH, Germering, Germany) coupled to a triple quadrupole mass spectrometer (TSQ Vantage, Thermo Fisher Scientific, Waltham, MA, USA), equipped with a heated electrospray ionization (ESI) interface. The applied analytical method is based on Puntscher et al.[28],[36] with slight modifications, which are specified below.
(§4) In brief, the Ascentis Express C18 column (10 cm × 2.1 mm, 2.7 μm, Supelco, Munich, DE), equipped with the Phenomenex SecurityGuard (C18 Cartridges, 4 × 2.0 mm ID, Phenomenex Ltd. Deutschland, Aschaffenburg, Germany), served as the stationary phase. Eluent A was aqueous ammonium acetate (5 mM, pH adjusted to 8.6 with a 25% ammonia solution), and eluent B was methanol. During the first minute, the column was kept at 30% eluent B. Subsequently, the eluent B content was linearly raised to 100% within 6 min. Thereafter, the column was washed with 100% eluent B for 1.5 min. Lastly, the column was re-equilibrated at the initial conditions, reaching an overall run time of 10 min. The autosampler compartment was kept at 10 °C, while the column oven temperature was maintained at 30 °C. […]

[2] = Phase I metabolism kinetics (parent toxin loss) in NADPH-fortified rat liver microsomes, LC-MS/MS; type: in vitro ADME, Sprague–Dawley rat; settings: for microsomal CLint: Sprague-Dawley, rat, pH 7.4, rat LMs, read-out: CLint (intrinsic clearance)
Protocol: as §1, §2, §3, §4

[3] = Pattern of oxidative metabolites in porcine LMs by HR-MS; type: in vitro ADME, pig; settings: porcine LMs incubated with AME
Protocol: as §2
Pooled high-resolution MS (HR-MS) samples were analyzed on a Vanquish UHPLC system (Thermo Fisher Scientific, Waltham, MA, USA) connected to a dual-pressure linear trap-quadrupole Orbitrap mass analyzer (Velos ETD, Thermo Fisher Scientific, Waltham, MA, USA). The heated ESI interface (source heater temperature: 400 °C) was operated in both positive and negative modes. The mobile and stationary phases were the same as those for the targeted analysis. The column compartment temperature was kept at 40 °C. A multistep gradient was applied at a flow rate of 0.4 mL/min and started with rinsing the column for 1 min at 10% eluent B. Then, the organic content was linearly raised to 100% until the 11th minute. Subsequently, the column was purged with 100% eluent B for two additional minutes. Finally, the initial eluent composition was reset between minutes 13 and 13.5, followed by a 2 min re-equilibration under these conditions, resulting in a total run time of 15.5 min. Data acquisition and evaluation were performed with the software Skyline (v. 21.1.0.146, MacCoss Lab, Department of Genome Sciences, University of Washington, Seattle, WA, USA), XCalibur (v. 2.2SP1.48), and Chromeleon (v. 7.2.6.; both Thermo Fisher Scientific, Waltham, MA, USA).
As no analytical standards are currently available for the hydroxy (OH) metabolites of AOH and AME, an Alternaria reference mixture containing 4-OH-AOH and 4-OH-AME was used to enable associating peaks with their respective phase I metabolites.

[4] = Pattern of oxidative metabolites in rat LMs by HR-MS; type: in vitro ADME, Sprague–Dawley rat; settings: rat LMs incubated with AME
Protocol: The kinetics of the phase I metabolism of AOH and AME was investigated by incubating human, rat (both 1 mg protein/mL), and porcine LMs (2 mg protein/mL) with 1, 10, 20, 50, and 100 μM AOH or 1, 10, 20, and 50 μM AME based on the protocol by Al-Subeihi et al.[34] The incubation solution contained a final concentration of 3 mM NADPH and 1 mM ascorbic acid in 200 mM Tris–HCl (pH 7.4). After preincubation (37 °C, 1 min, mixing at 250–300 rpm), the toxin stock was added in a 1:100 dilution, resulting in a total DMSO content of 1% and the desired toxin concentration. DMSO was selected for this assay because it is the least inhibitory of the solvents studied by Busby et al. on CYP1A1,[35] the primary enzyme involved in the hydroxylation of AOH and AME.[26] The well-established solubility of the test compounds in DMSO and DMSO-containing aqueous buffers facilitated laboratory work and ensured consistency with existing literature, thereby improving the comparability of results across studies, including those of Pfeiffer and colleagues.[25] […]
Pooled high-resolution MS (HR-MS) samples were analyzed on a Vanquish UHPLC system (Thermo Fisher Scientific, Waltham, MA, USA) connected to a dual-pressure linear trap-quadrupole Orbitrap mass analyzer (Velos ETD, Thermo Fisher Scientific, Waltham, MA, USA). […]

[5] = Pattern of oxidative metabolites in human LMs by HR-MS; type: in vitro ADME; settings: human LMs incubated with AME
Protocol: as §2
Pooled high-resolution MS (HR-MS) samples were analyzed on a Vanquish UHPLC system (Thermo Fisher Scientific, Waltham, MA, USA) connected to a dual-pressure linear trap-quadrupole Orbitrap mass analyzer (Velos ETD, Thermo Fisher Scientific, Waltham, MA, USA). The heated ESI interface (source heater temperature: 400 °C) was operated in both positive and negative modes. The mobile and stationary phases were the same as those for the targeted analysis. The column compartment temperature was kept at 40 °C. A multistep gradient was applied at a flow rate of 0.4 mL/min and started with rinsing the column for 1 min at 10% eluent B. Then, the organic content was linearly raised to 100% until the 11th minute. Subsequently, the column was purged with 100% eluent B for two additional minutes. […]

[6] = Caco-2 cell monolayers; cited from earlier work

Cc1cc(O)cc2oc(=O)c3c(O)cc(O)cc3c12 [AOH, alternariol]
Km ([1]; female, Large White (German Edelschwein), pig, liver microsomes, pH 7.4, porcine LMs 2 mg protein/mL, NADPH, within 10 min, Michaelis–Menten model, read-out: Km (Michaelis constant)): 672 µM
microsomal CLint ([1]; female, pig, liver microsomes, Michaelis–Menten model, ratio Vmax/Km): 8.52 µL/min/mg
microsomal CLint ([1]; female, pig, liver microsomes, linear regression, lower concentration range): 6.56 µL/min/mg
Concentration decrease ([1]; porcine LMs, 1 µM toxin, 5 min): 20%
Concentration decrease ([1]; porcine LMs, 1 µM toxin, 10 min): 47%
Concentration decrease ([1]; porcine LMs, 10 µM toxin, 5 min): 6%
Concentration decrease ([1]; porcine LMs, 10 µM toxin, 10 min): 16%
Concentration decrease ([1]; porcine LMs, 20 µM toxin, 5 min): 2%
Concentration decrease ([1]; porcine LMs, 20 µM toxin, 10 min): 15%
Concentration decrease ([1]; porcine LMs, 50 µM toxin, 5 min): 11%
Concentration decrease ([1]; porcine LMs, 50 µM toxin, 10 min): 14%
Concentration decrease ([1]; porcine LMs, 100 µM toxin, 5 min): 12%
Concentration decrease ([1]; porcine LMs, 100 µM toxin, 10 min): 14%
Vmax (maximum transformation rate) ([1]; porcine LMs, within 10 min, Michaelis–Menten model): 5730 pmol/mg/min
microsomal CLint ([2]; male, liver microsomes, Michaelis–Menten model, ratio Vmax/Km): 35.9 µL/min/mg
microsomal CLint ([2]; male, liver microsomes, linear regression, lower concentration range): 29.9 µL/min/mg
Km ([2]; male, Sprague–Dawley, liver microsomes, pH 7.4, rat LMs 1 mg protein/mL, NADPH, within 10 min, Michaelis–Menten model, read-out: Km (Michaelis constant)): 78.7 µM
Concentration decrease ([2]; rat LMs, 1 µM toxin, 5 min): 11%
Concentration decrease ([2]; rat LMs, 1 µM toxin, 10 min): 19%
Concentration decrease ([2]; rat LMs, 10 µM toxin, 5 min): 13%
Concentration decrease ([2]; rat LMs, 10 µM toxin, 10 min): 27%
Concentration decrease ([2]; rat LMs, 20 µM toxin, 5 min): 14%
Concentration decrease ([2]; rat LMs, 20 µM toxin, 10 min): 28%
Concentration decrease ([2]; rat LMs, 50 µM toxin, 5 min): 6%
Concentration decrease ([2]; rat LMs, 50 µM toxin, 10 min): 9%
Concentration decrease ([2]; rat LMs, 100 µM toxin, 5 min): 5%
Concentration decrease ([2]; rat LMs, 100 µM toxin, 10 min): 12%
Vmax (maximum transformation rate) ([2]; rat LMs, within 10 min, Michaelis–Menten model): 2830 pmol/mg/min
relative abundance among phase I metabolites (in words) [3]: one of the main metabolites
relative abundance among phase I metabolites (in words) [4]: one of the main metabolites
relative abundance among phase I metabolites (in words) [5]: small amounts
intestinal absorption [6]: limited intestinal absorption

Source: article PMC11337205, “Unraveling Interspecies Differences in the Phase I Hepatic Metabolism of Alternariol and Alternariol Monomethyl Ether: Closing Data Gaps for a Comprehensive Risk Assessment” (Chemical Research in Toxicology, 2024)
